Assay results from US7511119B2, “PRAME peptide analogues” (MannKind Corporation, priority 2005, dated 2009).
“Also recorded” adds a separate entry of the source. Square brackets hold non-standard residues; d marks the D form. Ends that are not written are not given here. Nle = CCCC[C@H](N)C(=O)O; Nva = CCC[C@H](N)C(=O)O

Columns and labels:
[1] = system: native PSMA288-297 peptide; experiment: Cross-reactive immunogenicity of PSMA analogs, IFN-gamma ELISPOT; format: in vivo, HHD transgenic mice; conditions: peptide plus pI:C intranodal; FIG. 22
Method: Groups of HHD transgenic mice (n=8) were immunized with peptide (natural epitope PSMA288-297, or analogs bearing substitutions at primary or secondary anchor residues) by direct inoculation into the inguinal lymph nodes, with 25 μg in 25 μl of PBS+12.5 μg of pI:C to each lymph node at day 0, 3, 14 and 17.
Mice were sacrificed at 10 days after the last boost, and splenocytes prepared and assessed for IFN-γ production by ELISPOT analysis. […] At 48 hours after incubation, the assay was developed and the frequency of cytokine-producing T cells that recognized native PSMA288-297 peptide was automatically counted. The data is represented in FIG. 22 as the number of spot forming colonies/well (mean of triplicates±SD). […] To the extent that the poor immunogenicity of the native epitope reflects tolerance, the improved activity of these analogs represents tolerance breaking.

PSMA288-297 peptide = experiment: Plasmid prime, peptide boost, IFN-gamma ELISPOT (PSMA288-297); format: in vivo, HHD transgenic mice; conditions: versus natural peptide boost, FIG. 23
Method: Two groups of HHD transgenic mice (n=8) were immunized with plasmid expressing PSMA288-297 by direct inoculation into the inguinal lymph nodes with 25 μg in […] of PBS to each lymph node at day 0, 3, 14 and 17. This was followed by two peptide boosts (25 μg) at day 28 and 31 with either the natural peptide or the I297V analog.
Mice were sacrificed at 10 days after the last boost, and splenocytes prepared and assessed for IFN-γ production by ELISPOT analysis. […] At 48 hours after incubation, the assay was developed and the frequency of cytokine-producing T cells that recognized the PSMA288-297 peptide was automatically counted. The data is represented in FIG. 23 as frequency of specific T cells normalized to 0.5 million responder cells (mean of triplicates+SD).

LnCap cells = experiment: Ex vivo cytotoxicity against PSMA+ A2+ human tumor cells; format: in vivo; conditions: splenocytes restimulated ex vivo with native PSMA288-297
Method: HHD transgenic mice (n=4) were immunized with PSMA288-297 peptide (25 μg in 25 μl of PBS, plus 12.5 μg of pI:C to each lymph node) at day 0, 3, 14 and 17. One week after the boost, splenocytes were stimulated ex vivo with the native PSMA288-297 peptide and tested against ^51Cr-labeled human tumor cells (PSMA^+ A2^+ LnCap cells, or as negative control, LnCap cells coated with MHC class I-blocking antibody) at various E:T ratios.
HHD transgenic mice (n=4) were immunized with plasmid expressing the PSMA288-297 epitope by direct inoculation into the inguinal lymph nodes with 25 μg in 25 μl of PBS to each lymph node at day 0, 3, 14 and 17. This was followed by two peptide boosts (same amount) at day 28 and 31, with the analog I297V. One week after the boost, splenocytes were stimulated ex vivo with the native PSMA288-297 peptide and tested overnight against ^51Cr-labeled human tumor cells (Lncap, A2^+ PSMA^+; or 624.38 A2^+ PSMA^− or control 624.28 cells A2^− PSMA^−) at various E:T ratios.

[2] = biological target: T1, A0201 restricted MHC Class 1 molecules (Homo sapiens, UniProt P04439, D140Y/D185E/D98H/E176V/E277Q/G131W/G231S/I119V/I121R/I166T/I218V/N151K/N90K/P208A/P217A/Q86G/Q94H/R138H/R169H); experiment: iTopia off-rate assay (T1/2); format: binding; conditions: compared with the respective native peptide
Method: (§2) Avidin-coated microtiter plates containing class I monomer loaded with a so-called placeholder peptide were used to evaluate peptide binding, affinity and off-rate. […] Assay buffers, anti-MHC-FITC mAb and beta2-microglobulin and control peptides were also supplied with the kits.
The plates were then incubated on the allele-specific monomer plates at 37° C. The plates were measured at multiple time points (0, 0.5, 1, 1.5, 2, 4, 6 and 8 hrs) for relative fluorescence intensity. The time required for 50% of the peptide to dissociate from the MHC monomer is defined as the T1/2 value (hrs).
The binding and offrate (T1/2) was determined for six native epitopes and their analogs which were designed to enhance the immune response.

PRAME425-433 peptide = experiment: IFN-gamma ELISA of splenocytes after pCTLR2 prime and peptide boost; format: in vivo, HHD transgenic mice; conditions: pCTLR2 prime, 2.5 μg peptide boost; versus native peptide boost; FIG. 29
[3] = system: PRAME425-433-specific T cells; experiment: Tetramer/CD8 co-staining of PRAME425-433-specific T cells; format: in vivo, HHD transgenic mice; conditions: versus boost with negative control peptide; FIG. 31
[4] = system: native peptide loaded splenocytes; experiment: In vivo cytotoxicity against native PRAME peptide-loaded splenocytes (CFSE); set-up: species or system HHD transgenic mice; conditions: pCTLR2 prime, peptide boost; FIGS. 30-31
624.38 melanoma cells [5] = experiment: Ex vivo cytotoxicity against PRAME+ A2+ human tumor cells; format: in vivo; conditions: splenocytes restimulated ex vivo with native PRAME peptide
Method: (§1) This was followed by two peptide boosts (2.5 μg) at day 28 and 31, with the analog L426Nva L433Nle.

splenocytes = experiment: Ex vivo cytokine production (IFN-gamma ELISA) after boost with PRAME analogs; format: in vivo, HHD transgenic mice; conditions: 10 μg/ml native peptide, 48 hours; FIG. 32
[6] = system: T cell line specific for the native epitope PRAME425-433; experiment: Cross-reactivity of PRAME425-433 analogs: IFN-gamma secretion from T cell line specific for native epitope; format: cell-based; conditions: analog peptide at approximately 0.3 μM; normalized to native PRAME425-433
Method: The analogs listed in FIGS. 26-28 were tested for various properties such as improved affinity and stability of binding, cross-reactivity with the native epitope, and immunogenicity as follows in Examples 40-48. […] The observed affinities of the analogs are reported as % binding (compared to the positive control) and ED50, and stability of binding as half time of dissociation. Cross reactivity with the native epitope was assessed by using the analog peptides to stimulate IFN-gamma secretion from a T cell line specific for the native epitope, essentially as described in Example 6. The data shown in FIGS. 26-28 were generated by stimulating with analog peptide at approximately 0.3 μM. […] In some cases, the reported values are the average of two determinations.

HLA-A*0201 = HLA-A*0201 (Homo sapiens, UniProt P04439, D140Y/D185E/D98H/E176V/E277Q/G131W/G231S/I119V/I121R/I166T/I218V/L300P/L318F/N151K/N90K/P208A/P217A/Q86G/Q94H/R138H/R169H/T345S); experiment: iTopia affinity assay (ED50); format: binding; conditions: compared with the respective native peptide
Description: Avidin-coated microtiter plates containing class I monomer loaded with a so-called placeholder peptide were used to evaluate peptide binding, affinity and off-rate. The monomer-coated plates were supplied as part of the iTopia Epitope Discovery System Kit (Beckman Coulter, Inc., San Diego, Calif., USA). Assay buffers, anti-MHC-FITC mAb and beta2-microglobulin and control peptides were also supplied with the kits.
Plates were read on the fluorometer. Sigmoidal dose response curves were generated using Prism software.

A2-624.28 control cells = experiment: Ex vivo cytotoxicity against A2-negative control cells; format: in vivo; conditions: same effector cells as for 624.38
Method: as §1

624.38 melanoma cells [7] = experiment: Ex vivo cytotoxicity against human tumor cells after boost with SSX-2 analogs; format: in vivo; conditions: plasmid prime, peptide boost; FIG. 12
Method: Eight groups of mice (n=4) were immunized with plasmid expressing SSX-241-49 natural epitope by direct inoculation into the inguinal lymph nodes with 25 ug in 25 ul of PBS/each lymph node at day 0, 3, 14 and 17. This was followed by two additional peptide boosts (similar amount) at day 28 and 31, using a negative control peptide (Melan A 26-35 “EAA”), natural peptide or analogs as shown in FIG. 9.

[8] = system: T cell lines against natural epitope SSX-241-49; experiment: Cross-reactivity and functional avidity: IFN-gamma production by T cell lines raised against natural SSX-2 41-49; format: cell-based, HHD transgenic mice; conditions: T cells raised to native peptide tested on analogs; footnote * and unit not given;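 further: analogs presented ex vivo by competent APCs to T cells specific for the non-mutated epitope, scored by lowest activating concentration, peak cytokine effect and concentration at that peak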
T2 cells = experiment: Ex vivo cytotoxicity against 51Cr-labeled T2 target cells after plasmid prime and peptide boost; format: in vivo, mice; conditions: plasmid prime, peptide boost; splenocytes restimulated ex vivo; FIG. 8
Method: Three groups of mice (n=4) were immunized with a plasmid expressing SSX-241-49 natural epitope by direct inoculation into the inguinal lymph nodes with 25 μg in 25 μl of PBS/each lymph node at day 0, 3, 14 and 17. This was followed by two additional peptide boosts (similar amount) at day 28 and 31. One week after the boost, splenocytes were stimulated ex vivo with SSX-241-49 natural peptide and tested against ^51Cr-labeled target cells (T2 cells) at various E:T ratios (FIG. 8). […] This correlated with the binding and stability parameters determined by ex vivo experimentation.

[9] = system: target cells coated with natural peptide; experiment: In vivo cytotoxicity against splenocytes coated with natural SSX-2 41-49 peptide (CFSE); set-up: species or system HHD mice; conditions: spleen and blood; targets coated with 20 μg/ml and 1 μg/ml natural peptide
Method: Eight groups of mice (n=4) were immunized with plasmid expressing SSX-241-49 natural epitope, by direct inoculation into the inguinal lymph nodes with 25 μg in 25 μl of PBS/each lymph node at day 0, 3, 14 and 17. This was followed by two additional peptide boosts (similar amount) at day 28 and 31, using a negative control peptide (Melan A 26-35 “EAA”), natural peptide or analogs as shown in FIG. 9.
To evaluate the in vivo response against natural peptide, splenocytes were isolated from littermate control HHD mice and incubated with 20 μg/mL or 1 μg/ml of natural peptide for 2 hours. These cells were then stained with CFSE^hi fluorescence (4.0 μM or […] for 15 minutes) and intravenously co-injected into immunized mice with an equal number of control splenocytes stained with CFSE^lo fluorescence (0.4 μM). Eighteen hours later the specific elimination of target cells was measured by removing spleen and PBMC from challenged animals and measuring CFSE fluorescence by flow cytometry. The relative depletion of the populations corresponding to peptide loaded splenocytes was calculated relative to the control (unloaded) population and expressed as % specific lysis. FIG. 10 (spleen) and 11 (blood) show the in vivo cytotoxicity elicited by the regimens described in FIG. 7.

[10] = biological target: T1, A0201 restricted MHC Class 1 molecules; experiment: iTopia binding assay (% binding); conditions: compared with the native peptide
Description: as §2
This assay measures the ability of individual peptides to bind HLA molecules under standardized optimal binding conditions. Monomer-coated plates were first stripped, releasing the placeholder peptide and leaving only the MHC heavy chain bound to the plate. Test peptides were then introduced under optimal folding conditions, along with the anti-MHC-FITC mAb. […] The anti-MHC-FITC mAb binds preferentially to a refolded MHC complex. Therefore, the fluorescence intensity resulting from each peptide was related to the peptide's ability to form complex with MHC molecule. Each peptide's binding was evaluated relative to the positive control peptide provided in the kit, and the results were expressed “% binding”.

Compound: PSMA 288-297(I297V): PSMA288-297 analog with I297V substitution
- priming of immune response against native PSMA288-297 (IFN-γ ELISPOT), in words [1]: increased priming
- frequency of native epitope-specific T cells (ELISPOT) (PSMA288-297 peptide): considerably higher
- cytotoxicity against LnCap human tumor cells (LnCap cells): effective in mediating cytotoxicity against LNCAP

Compound: S{Nva}LQHLIG{Nle} (S[Nva]LQHLIG[Nle]) [Prame 425-433 (L426Nva, L433Nle)]
- stability of binding (half-time of dissociation), in words [2]: Significant increase in the stability
- IFN-γ production in response to PRAME425-433 peptide (ELISA) (PRAME425-433 peptide): significant enhancement of IFN-γ production
- expansion of T cells specific against the native epitope (tetramer staining) [3]: significantly higher
- in vivo cytotoxicity against native epitope, in words [4]: preserved induction of cytotoxicity; also recorded: capable of expanding the immunity against the native epitope
- cytotoxicity against 624.38 human tumor cells (624.38 melanoma cells [5]): significant cytotoxicity
- ex vivo cytokine production (IFN-γ) by splenocytes (splenocytes): greater response
- IFN-γ production (cross-reactivity), in words [6]: significant level of cross-recativity
- binding affinity (ED50) / binding characteristics, in words (HLA-A*0201): similar, somewhat improved binding characteristics
- cytotoxicity against A2-negative control cells (A2-624.28 control cells): no significant activity

Compound: CC[C@H](C)[C@H](NC(=O)[C@H](CCCCN)NC(=O)[C@H](CCC(=O)O)NC(=O)[C@H](CO)NC(=O)[C@@H](NC(=O)[C@@H](N)CCCCN)C(C)C)C(=O)N[C@@H](Cc1ccccc1)C(=O)N[C@@H](Cc1ccc(O)cc1)C(=O)N[C@H](C(=O)O)C(C)C [SSX2 41-49 (A42V)]
- cytotoxicity against human tumor cells expressing natural SSX-2 41-49 epitope (624.38 melanoma cells [7]): increased cytotoxicity
- Cross-reactivity and fct avidity (native to analogs)* [8]: 0.03
- response against target cells expressing the natural peptide (T2 cells): higher response
- in vivo cytotoxicity (% specific lysis), in words [9]: increased activity

Compound: S425F: PRAME425-433 analog with Phe for the Ser at P1 (FLLQHLIGL) [Peptide S425F]
- in vivo cytotoxicity against native epitope, in words [4]: capable of expanding the immunity against the native epitope
- percent binding, in words [10]: exceeded that range on the high side
